Data reported in US8865657B2, “Compositions and methods for inactivating or suppressing inflammatory cells” (New York University, priority 2005, dated 2014).
Read-outs that look alike come from different tables or passages of the source.

Assays:
Kupffer cells [1] = assay: Zymosan-induced respiratory burst (ROS) in Kupffer cells, luminol- or lucigenin-enhanced chemiluminescence
Excerpt: Liver cell isolation. Liver cells were isolated from female Sprague Dawley rats (230-250 g). Livers were perfused with collagenase as described by Neufeld (Neufeld DS (1997) Isolation of rat liver hepatocytes. Methods in Molecular Biology, Vol 75: Basic Cell Culture Protocols 75: 145-151). Subsequently, liver cells were purified by a combined differential and Percoll gradient centrifugation using a Sorvall HS4 swinging bucket rotor (Smedsrod B, Pertoft H (1985) Preparation of pure hepatocytes and reticuloendothelial cells in high yield from a single rat liver by means of Percoll centrifugation and selective adherence. J.Leukocyte Biol 38: 213-230). After filtration through a 100-μm mesh polypropylene filter (Spectra/Mesh; Spectrum, Laguna Hills, Calif.), the cell suspension was centrifuged for 5 minutes at 50 g resulting in a hepatocyte-enriched pellet and a nonparenchymal cell-enriched supernatant. The nonparenchymal cell-containing supernatant was saved. The pellet was resuspended in ice-cold phosphate-buffered saline (PBS) and mixed in an equal volume of PBS-buffered isotonic Percoll. The gradient was centrifuged for 10 minutes at 50 g. The pellet was resuspended in PBS, centrifuged again, and the final pellet was resuspended in RPMI 1640 medium containing 10% FCS. The nonparenchymal cell-enriched supernatants were centrifuged for 15 minutes at 900 g. The pellet was resuspended in ice-cold PBS, layered over a 2-cushion Percoll gradient (Smedsrod B, Pertoft H (1985) Preparation of pure hepatocytes and reticuloendothelial cells in high yield from a single rat liver by means of Percoll centrifugation and selective adherence. J.Leukocyte Biol 38: 213-230) and centrifuged for 30 minutes at 900 g. The intermediate zone, containing mostly liver endothelial cells, and the bottom cushion, containing mostly Kupffer cells, were saved, mixed with PBS, and centrifuged for 15 minutes at 900 g. The pellet was resuspended in PBS with 1% FCS and the cells further separated into various fractions by centrifugal counterflow elutriation (Knook D L, Sleyster E C (1976) Separation of Kupffer and endothelial cells of the rat liver by centrifugal elutriation. Exp Cell Res 99: 444-449) using the Beckman Coulter JE-5.0 elutriator rotor supplied with a Sanderson chamber (Beckman Coulter, Palo Alto, Calif. USA). The cell suspension was introduced into the elutriator at a flow rate of 12 ml/min, and the elutriator speed set to 3250 rpm. Endothelial cells were obtained at a 32 ml/min flow rate, whereas Kupffer cells were collected at 70 ml/min. The cells were centrifuged at 200 g and resuspended in RPMI-1640 medium containing 10% fetal calf serum. The cell purity and viability were above 95% as determined by peroxidase stain and trypan blue exclusion.
Cell culture. Kupffer cells were seeded into 96-well microtiter plates (0.25×10^6 cells/well) or 24-well plates (1.0×10^6 cells/well). Endothelial cells were plated on 24-well plates (1.5×10^6 cells/well), which had been previously coated with type I collagen (Sigma, St. Louis, Mo.). […] All types of cells were cultivated in RPMI 1640 medium supplemented with 10% fetal calf serum (FCS), 25 mM HEPES, and antibiotics (100 U/ml penicillin G and 100 μg/ml streptomycin sulfate) at 37° C. in 5% CO2. Nonadherent cells were removed after 1 h by replacing medium, and the cells were cultured in the same medium for 18 h and then in RPMI-1640 without FCS for 6 h.
Cell treatment. To study the effect of CSP on cell signaling, the cells were incubated with different concentration of CSP for 0-90 min at 37° C. in 5% CO2. Before use, CSP was dialyzed extensively with 150 mM NaCl, 10 mM HEPES, pH 7.4 and diluted in culture medium.

Kupffer cells [2] = assay: cAMP radioimmunoassay, intracellular cAMP in Kupffer cells; assay type: cell-based, rat
Protocol: Liver cell isolation. […] The nonparenchymal cell-containing supernatant was saved.
Cell culture. […] HepG2 cells were used on day 3 after plating.
Cell treatment. […] Role of calcium and cyclic AMP. […] J Immunol 174: 2981-2989). […] IBMX was dissolved in dimethyl sulphoxide (DMSO).
cAMP radioimmunoassay. For cAMP determination, liver cell cultures were incubated in culture medium without FCS at 37° C. for 0-90 min. The cultures were then placed on ice, and the reaction was stopped by aspiration of the incubation medium followed by the addition of 1 ml of ice cold 65% (vol/vol) ethanol. The cells were scraped into Eppendorf tubes and centrifuged at 10000 g for 10 min at 4° C. The supernatants were dried in SC110 Speedvac Concentrator (Savant, Farmingdale, N.Y.) at room temperature, and the dried extracts were dissolved in assay buffer for cAMP determination with cAMP [^125I] Direct Biotrak Assay from Amersham Biosciences (Piscataway, N.J.), according to the instructions of the manufacturer. Samples were analyzed with a Beckman LS 6000 scintillation counter. The cAMP level in each sample was normalized to the protein concentration and expressed as fmol/μg of protein. Ethanol-precipitated cell pellets were diluted with 0.15 M NaOH and the protein concentration was measured with the Micro BCA Protein Assay Kit (Pierce Chemical Co., Rockford, Ill.) according to manufacturer's instructions.

CCCC(=O)Nc1ncnc2c1ncn2[C@@H]1O[C@@H]2COP(=O)(O)O[C@H]2[C@H]1O [6-MB-cAMP, N6-monobutyryladenosine-3′,5′-cAMP]
effect on zymosan-induced ROS formation (Kupffer cells [1]; 3 mM, pretreated 40 minutes, luminol-enhanced chemiluminescence): had no effect

CO[C@@H]1[C@@H]2OP(=O)(O)OC[C@H]2O[C@H]1n1c(Sc2ccc(Cl)cc2)nc2c(N)ncnc21 [8-CPT-2-Me-cAMP, 8-[4-chlorophenylthio]-2′-O-methyladenosine-3′,5′-cAMP]
effect on zymosan-induced ROS formation (Kupffer cells [1]): inhibited

[O-][Cl+2]([O-])O [Chlorate, sodium chlorate, reference compound]
inhibition at 20000 µM (Kupffer cells [2]; Rattus norvegicus, read-out: inhibition of the CSP-induced generation of cAMP): 20%

Cl.Cl.O=S(=O)(NCCNCC=Cc1ccc(Br)cc1)c1cccc2cnccc12 [H-89, N-[2-(p-Bromocinnamylamino)ethyl]-5-isoquinolinesulfonamide dihydrochloride]
effect on the CSP-mediated inhibition of the respiratory burst (Kupffer cells [1]): failed to prevent

CC(C)Cn1c(=O)n(C)c(=O)c2[nH]cnc21 [IBMX, 3-isobutyl-1 methylxanthine, reference compound]
inhibition at 1000 µM (Kupffer cells [1]; Rattus norvegicus, read-out: inhibition of the zymosan-induced respiratory burst): 67% | effect on the CSP-induced generation of cAMP (Kupffer cells [2]; added 10 min before 50 nM CSP (30 min), RAP 500 nM): did not reduce

C[C@]12N[C@H](Cc3ccccc31)c1ccccc12 [MK-801]
effect on the CSP-mediated inhibition of the respiratory burst (Kupffer cells [1]): had no effect

Nc1ncnc2c1ncn2C1CCCO1 (stereo not drawn) [SQ 22,536, 9-(Tetrahydro-2-furanyl)-9H-purin-6-amine]
effect on the inhibition of the zymosan-induced respiratory burst by sporozoites (Kupffer cells [1]; 100 μM SQ 22,536 with P. yoelii sporozoites): abrogated the inhibitory effect

CCCC(=O)Nc1ncnc2c1ncn2[C@@H]1O[C@@H]2COP(=O)(O)O[C@H]2[C@H]1OC(=O)CCC [db-cAMP, dibutyryl cAMP]
inhibition of the zymosan-induced respiratory burst (Kupffer cells [1]; 1 mM IBMX or 1 mM db-cAMP, luminol-enhanced chemiluminescence): 22%
